From patent publication US20100305068A1, “COMPOUNDS AND METHODS FOR MODULATING PROTEIN TRAFFICKING” (priority 2006, published 2010)
Where two headings read alike, the source gives them in different places.

Test system: pdr5 ypt1^ts cells
Assay: microbe, parasite or virus in culture
Format: cell-based, yeast
Conditions: for minimal effective concentration / optical density, ypt1-ts, 0.39 / optical density, ypt1-ts, 0.78 / optical density, ypt1-ts, 1.56 / optical density, ypt1-ts, 3.13 / optical density, ypt1-ts, 6.25 / optical density, ypt1-ts, 12.5 / optical density, ypt1-ts, 25: Table 2; for minimal effective concentration: lowest concentration tested giving growth above the 0 μM background, read-out: ypt1-ts MRC (minimal rescue concentration); for optical density, ypt1-ts, 0.39: 0.39 μM compound; for optical density, ypt1-ts, 0.39 / optical density, ypt1-ts, 0.78 / optical density, ypt1-ts, 1.56 / optical density, ypt1-ts, 3.13 / optical density, ypt1-ts, 6.25 / optical density, ypt1-ts, 12.5 / optical density, ypt1-ts, 25: background (0 μM) 0.058; for optical density, ypt1-ts, 0.78: 0.78 μM compound; for optical density, ypt1-ts, 1.56: 1.56 μM compound; for optical density, ypt1-ts, 3.13: 3.13 μM compound; for optical density, ypt1-ts, 6.25: 6.25 μM compound; for optical density, ypt1-ts, 12.5: 12.5 μM compound; for optical density, ypt1-ts, 25: 25 μM compound
In short: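 Whole-cell yeast growth-rescue screen: pdr5 ypt1^ts cells (efflux pump inactivated), growth-arrested at 37° C., cultured with compounds at 37° C. Restoration of growth read by optical density.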

[1] = Saccharomyces cerevisiae, 37° C.
[2] = Table 3, 3.13 uM compound, 37° C., background (0 uM) 0.077
[3] = Table 3, 12.5 uM compound, 37° C., background (0 uM) 0.077
[4] = Table 3, 50 uM compound, 37° C., background (0 uM) 0.077

Compound | minimal effective concentration [1] [µM] | optical density, ypt1-ts, 0.39 (37° C.) | optical density, ypt1-ts, 0.78 (37° C.) | optical density, ypt1-ts, 1.56 (37° C.) | optical density, ypt1-ts, 3.13 (37° C.) | optical density, ypt1-ts, 6.25 (37° C.) | optical density, ypt1-ts, 12.5 (37° C.) | optical density, ypt1-ts, 25 (37° C.) | optical density, 3.13 uM [2] | optical density, 12.5 uM [3] | optical density, 50 uM [4] | minimal effective concentration (37° C.) [µM] | optical density, 3.13 uM | optical density, 12.5 uM | optical density, 50 uM
CC(=O)[C@H]1CC[C@H]2[C@@H]3CCC4=CC(=O)CC[C@]4(C)[C@H]3CC[C@]12C [PROGESTERONE, reference compound] | 12.5 | 0.089 | 0.083 | 0.091 | 0.098 | 0.12 | 0.15 | 0.316 |  |  |  |  |  |  | 
CC(C)N(C(=O)CCl)c1ccccc1 [PROPACHLOR] | 6.25 | 0.101 | 0.085 | 0.098 | 0.121 | 0.141 | 0.177 | 0.184 |  |  |  |  |  |  | 
CCC(=O)Nc1ccc(Cl)c(Cl)c1 [PROPANIL] | 12.5 | 0.084 | 0.072 | 0.076 | 0.097 | 0.108 | 0.217 | 0.564 |  |  |  |  |  |  | 
CNC(=O)Oc1ccccc1OC(C)C [PROPOXUR] |  |  |  |  |  |  |  |  | 0.194 | 0.289 | 0.231 |  |  |  | 
C/C=C(\C)C(=O)O[C@@H]1c2c(ccc3ccc(=O)oc23)OC(C)(C)[C@@H]1OC(C)=O [PTERYXIN] | 6.25 | 0.103 | 0.078 | 0.096 | 0.124 | 0.134 | 0.26 | 0.479 |  |  |  |  |  |  | 
COc1ccc(/C=C/c2cc(O)cc(O)c2)cc1 [RESVERA- TROL 4′- METHYL ETHER] |  |  |  |  |  |  |  |  | 0.08 | 0.103 | 0.331 |  |  |  | 
C[n+]1cc2c3c(ccc2c2ccc4cc5c(cc4c21)OCO5)OCO3.O=S(=O)([O-])O [SANGUINARINE SULFATE] | 12.5 | 0.092 | 0.076 | 0.077 | 0.089 | 0.111 | 0.165 | 0.345 |  |  |  |  |  |  | 
CC1=CC(=O)[C@H]2C(C)(C)CCC[C@]2(C)[C@@]1(O)CCc1ccoc1 [SOLIDAGENONE] | 6.25 | 0.092 | 0.077 | 0.086 | 0.11 | 0.141 | 0.439 | 0.62 |  |  |  |  |  |  | 
CCCCC1(COC(=O)CCC(=O)O)C(=O)N(c2ccccc2)N(c2ccccc2)C1=O [SUXIBUZONE, reference compound] | 3.13 | 0.101 | 0.078 | 0.093 | 0.127 | 0.173 | 0.329 | 0.536 |  |  |  |  |  |  | 
COC(=O)C(O)[C@H]1C(C)(C)[C@@H](OC(C)=O)[C@@H]2CC3=C4CC(=O)O[C@@H](c5ccoc5)[C@]4(C)CCC3[C@]1(C)C2=O (stereo partly drawn) [SWIETENOLIDE- 3-ACETATE] |  |  |  |  |  |  |  |  | 0.425 | 0.629 | 0.619 |  |  |  | 
C=CCC1(C(C)CCC)C(=O)N=C([S-])NC1=O.[Na+] (stereo not drawn) [THIAMYLAL SODIUM, reference compound] | 12.5 | 0.089 | 0.071 | 0.089 | 0.101 | 0.103 | 0.162 | 0.209 |  |  |  |  |  |  | 
CC1(C)C(=O)C=C[C@]2(C)C3CC[C@@]4(C)[C@H](c5ccoc5)C[C@H]5O[C@]54C3[C@H](O)CC12 (stereo partly drawn) [TRI- CHILENONE] |  |  |  |  |  |  |  |  | 0.119 | 0.283 | 0.462 |  |  |  | 
CC(CCC(=O)O)[C@H]1CCC2C3C(CC[C@@]21C)[C@@]1(C)CC[C@@H](O)C[C@H]1C[C@@H]3O (stereo partly drawn) [URSODIOL, reference compound] |  |  |  |  |  |  |  |  | 0.202 | 0.41 | 0.523 |  |  |  | 
O=c1c2ccccc2oc2ccccc12 [XANTHONE] | 6.25 | 0.096 | 0.072 | 0.093 | 0.109 | 0.152 | 0.445 | 0.598 |  |  |  |  |  |  | 
Nc1nc2ncc(=O)[nH]c2c(=O)[nH]1 [XANTHOP- TERIN] |  |  |  |  |  |  |  |  | 0.101 | 0.23 | 0.073 |  |  |  | 
C=C1C2CC[C@@]3(C)[C@H](c4ccoc4)OC(=O)C[C@]13O[C@H]1CC(=O)C(C)(C)C(CC(=O)OC)C21C (stereo partly drawn) [[…], METHYL ESTER] | 3.13 | 0.119 | 0.087 | 0.107 | 0.21 | 0.53 | 0.56 | 0.577 |  |  |  |  |  |  | 
AKLAVINE HYDROCHLORIDE |  | 0.095 | 0.136 | 0.078 | 0.088 | 0.101 | 0.145 | 0.246 |  |  |  | 12.5 |  |  | 
AVOCATIN A |  |  |  |  |  |  |  |  | 0.351 | 0.06 | 0.036 |  |  |  | 
AVOCATIN B |  |  |  |  |  |  |  |  | 0.451 | 0.032 | 0.032 |  |  |  | 
CHLORO- PHYLLIDE Cu COMPLEX Na SALT |  |  |  |  |  |  |  |  | 0.064 | 0.054 | 0.305 |  |  |  | 
DACTINOMYCIN [reference compound] |  | 0.093 | 0.071 | 0.082 | 0.104 | 0.351 | 0.663 | 0.669 |  |  |  | 6.25 |  |  | 
FUSIDIC ACID [reference compound] |  | 0.095 | 0.081 | 0.084 | 0.107 | 0.137 | 0.296 | 0.52 |  |  |  | 6.25 |  |  | 
NIMESULIDE [reference compound] |  |  |  |  |  |  |  |  |  |  |  |  | 0.098 | 0.147 | 0.539
NIMODIPINE [reference compound] |  | 0.097 | 0.081 | 0.096 | 0.113 |  | 0.178 | 0.27 |  |  |  | 12.5 |  |  | 
